# Measured values taken from patent US20100099564A1, “HERBICIDE COMBINATION COMPRISING DIMETHOXYTRIAZINYL-SUBSTITUTED DIFLUOROMETHANESULFONYLANILIDES” (BAYER CROPSCIENCE AG, priority 2008, published 2010).
# Where two headings read alike, the source gives them in different places.
# What was measured:
# Assay type in all cases: in vivo
# [1] = test system: Lolium multiflorum (LOLMU); assay: Post-emergence action, greenhouse pot test, visual scoring: LOLMU
# Procedure: (§1) Seeds or rhizome pieces of mono- and dicotyledonous harmful and useful plants were placed in peat pots (diameter 4 cm) filled with sandy loam and then covered with soil. The pots were kept in a greenhouse under optimum conditions. In addition, harmful plants encountered in paddy rice cultivation were cultivated in pots with a water level 2 cm above the soil surface.
# (§2) About three weeks after the start of the cultivation, the test plants were treated at the 2- to 3-leaf stage. The herbicides, formulated as powder or liquid concentrates, were, either alone or in the combinations according to the invention, sprayed in various dosages on to the green parts of the plants using an application rate of 600 l of water/ha (converted). For further cultivation of the plants, the pots were then again kept under optimum conditions in a greenhouse.
# (§3) The visual scoring of the herbicidal effects was carried out in intervals up to 21 days after the treatment. Scoring was carried out in percent in comparison to the untreated control plants. 0%=no herbicidal activity, 100%=complete herbicidal activity=complete kill.
# (§4) The percentages from the treatments with the herbicides alone (=individual application) and with the combinations according to the invention (=mixtures) were employed to calculate interactions using the method of Colby. When the observed efficacies of the mixtures exceed the formal sum of the values of the tests with individual applications, they also exceed the expected value according to Colby, which is calculated using the formula below (cf. S. R. Colby; in Weeds 15 (1967) pp. 20 to 22):
# (§5) Here: • A, B=activity of components A and B in percent at a dosage of a and b g of ai/ha (=gramm of active substance per hectare), respectively. • E=expected value in % at a dosage of a+b g of ai/ha.
# (§6) The combinations according to the invention of herbicides from group (A) with herbicides from group (B) were tested on a broad spectrum of important harmful plants (weed grasses, broad-leaved weeds/Cyperaceae) and useful plants: Triticum aestivum (TRZAS), Stellaria media (STEME), Lolium multiflorum (LOLMU), Veronica persica (VERPE), Alopecurus myosuroides (ALOMY), Matricaria inodora (MATIN), Brassica napus (BRSNW), Viola tricolor (VIOTR), Avena fatua (AVEFA), Amaranthus retroflexus (AMARE), Zea mays (ZEAMX), Pharbitis purpurea (PHBPU), Setaria viridis (SETVI), Fallopia (ex Polygonum) convolvulus (POLCO), Echinochloa crusgaffi (ECHCG), Abuthilon theophrasti (ABUTH), Cyperus esculentus (CYPES), Oryza sativa (ORYSA).
# (§7) Of particular interest are the results shown in the tables (Tab.) below, where the following key is used: • (1) EPPO code (former Bayer code) for the treated plant (see above) • (2) Time of scoring: DAT (days after treatment) • (3) Component A tested (identifying number) • (4) Component B tested (identifying number) • (5) Dosage component A [g of ai/ha] • (6) Dosage component B [g of ai/ha] • (7) % activity found • (8) E value (calculated according to Colby; see above) • (9) Comments: “SYNERGY” =synergistic interaction (E value<% activity found); “SAFENING”=safener action on useful plant (E value>% activity found)
# Veronica persica (VERPE) = assay: Post-emergence action, greenhouse pot test, visual scoring: VERPE; conditions: 21 DAT
# Procedure: as §1, §2, §3, §4, §5, §6, §7
# [2] = test system: Cyperus esculentus (CYPES); assay: Post-emergence action, greenhouse pot test, visual scoring: CYPES; conditions: 21 DAT
# Procedure: as §1, §2, §3, §4, §5
# [3] = test system: Triticum aestivum (TRZAS); assay: Post-emergence action, greenhouse pot test, visual scoring: TRZAS
# Procedure: as §1, §2, §3, §4, §5, §6, §7
# Viola tricolor (VIOTR) = assay: Post-emergence action, greenhouse pot test, visual scoring: VIOTR; conditions: rate (6) 2
# Procedure: as §1, §2, §3, §4, §5, §6, §7
# Avena fatua (AVEFA) = assay: Post-emergence action, greenhouse pot test, visual scoring: AVEFA; conditions: 21 DAT
# Procedure: as §1, §2, §3, §4, §5, §6, §7
# Zea mays (ZEAMX) = assay: Post-emergence action, greenhouse pot test, visual scoring: ZEAMX; conditions: for plant injury at 40 g/ha: B 40 g of ai/ha
# Procedure: as §1, §2, §3, §4, §5, §6, §7
# Oryza sativa (ORYSA) = assay: Post-emergence action, greenhouse pot test, visual scoring: ORYSA
# Procedure: as §1, §2, §3, §4, §5, §6, §7
# [4] = test system: Fallopia (ex Polygonum) convolvulus (POLCO); assay: Post-emergence action, greenhouse pot test, visual scoring: POLCO; conditions: 21 DAT
# Procedure: as §1, §2, §3, §4, §5, §6, §7
# [5] = test system: Pharbitis purpurea (PHBPU); assay: Post-emergence action, greenhouse pot test, visual scoring: PHBPU; conditions: 21 DAT
# Procedure: as §1, §2, §3, §4, §5, §6, §7
# [6] = test system: Alopecurus myosuroides (ALOMY); assay: Post-emergence action, greenhouse pot test, visual scoring: ALOMY; conditions: Alopecurus myosuroides, post-emergence, read-out: % activity found; for pest or weed control at 40 g/ha: B 40 g of ai/ha
# Procedure: as §1, §2, §3, §4, §5
# Setaria viridis (SETVI) = assay: Post-emergence action, greenhouse pot test, visual scoring: SETVI; conditions: Setaria viridis, post-emergence, 504 h; 21 DAT, B 40 g of ai/ha; read-out: % activity found
# Procedure: as §1, §2, §3, §4, §5, §6, §7
structure (smiles),measurement,setting,value
"COCCOc1ccccc1S(=O)(=O)NC(=O)Nc1nc(OC)nc(OC)n1 [B7-6, N-[[(4,6-dimethoxy-1,3,5-triazin-2-yl)amino]carbonyl]-2-(2-methoxyethoxy)benzenesulfonamide]",% activity found,"[1]; 10 DAT, dose (6) 7",40%
same,% activity found,"[1]; 21 DAT, dose (6) 7",10%
same,% activity found,Veronica persica (VERPE); dose (6) 7,0%
same,% activity found,Veronica persica (VERPE); dose (6) 21,0%
same,% activity found,[2]; dose (6) 21,0%
"COC(=O)c1ccc(I)cc1S(=O)(=O)NC(=O)Nc1nc(C)nc(OC)n1.[Na] [B7-16, methyl 4-iodo-2-[[[[(4-methoxy-6-methyl-1,3,5-triazin-2-yl)amino]carbonyl]amino]sulfonyl]benzoate sodium salt]",(7) % activity found,"[3]; 10 DAT, rate (6) 2",40%
same,(7) % activity found,"[3]; 21 DAT, rate (6) 2",20%
same,(7) % activity found,"[3]; 21 DAT, rate (6) 6",60%
same,(7) % activity found,Viola tricolor (VIOTR); 10 DAT,70%
same,(7) % activity found,Viola tricolor (VIOTR); 21 DAT,90%
same,(7) % activity found,Avena fatua (AVEFA); rate (6) 2,10%
same,(7) % activity found,"Zea mays (ZEAMX); 10 DAT, rate (6) 2",30%
same,(7) % activity found,"Zea mays (ZEAMX); 10 DAT, rate (6) 6",20%
same,(7) % activity found,"Zea mays (ZEAMX); 21 DAT, rate (6) 2",0%
same,(7) % activity found,"Oryza sativa (ORYSA); 10 DAT, rate (6) 2",90%
same,(7) % activity found,"Oryza sativa (ORYSA); 21 DAT, rate (6) 2",70%
"COC(=O)c1ccc(CNS(C)(=O)=O)cc1S(=O)(=O)NC(=O)Nc1nc(OC)cc(OC)n1 [B7-17, methyl 2-[[[[(4,6-dimethoxy-2-pyrimidinyl)amino]carbonyl]amino]sulfonyl]-4-[[(methylsulfonyl)amino]methyl]benzoate]",(7) % activity found,"[3]; 10 DAT, rate (6) 2",40%
same,(7) % activity found,"[3]; 10 DAT, rate (6) 6",60%
same,(7) % activity found,"[3]; 21 DAT, rate (6) 2",20%
same,(7) % activity found,"[3]; 21 DAT, rate (6) 6",70%
same,(7) % activity found,Avena fatua (AVEFA); rate (6) 2,20%
same,(7) % activity found,Avena fatua (AVEFA); rate (6) 6,70%
same,(7) % activity found,"Zea mays (ZEAMX); 10 DAT, rate (6) 6",40%
same,(7) % activity found,[4]; rate (6) 2,40%
same,(7) % activity found,[4]; rate (6) 6,50%
same,(7) % activity found,"Oryza sativa (ORYSA); 10 DAT, rate (6) 6",90%
"COC(=O)c1csc(C)c1S(=O)(=O)NC(=O)n1nc(OC)n(C)c1=O [B8-3, methyl 4-[[[(4,5-dihydro-3-methoxy-4-methyl-5-oxo-1H-1,2,4-triazol-1-yl)carbonyl]amino]sulfonyl]-5-methyl-3-thiophenecarboxylate]",(7) % activity found,"[3]; 21 DAT, rate (6) 2",30%
same,(7) % activity found,Veronica persica (VERPE); rate (6) 2,40%
same,(7) % activity found,Avena fatua (AVEFA); rate (6) 0.7,50%
same,(7) % activity found,"Zea mays (ZEAMX); 21 DAT, rate (6) 2",20%
same,(7) % activity found,[2]; rate (6) 0.7,0%
same,(7) % activity found,"Oryza sativa (ORYSA); 10 DAT, rate (6) 0.7",50%
same,(7) % activity found,"Oryza sativa (ORYSA); 10 DAT, rate (6) 2",70%
same,(7) % activity found,"Oryza sativa (ORYSA); 21 DAT, rate (6) 2",40%
"COc1cnc(OC)n2nc(NS(=O)(=O)c3c(OCC(F)F)cccc3C(F)(F)F)nc12 [B9-6, 2-(2,2-difluoroethoxy)-N-(5,8-dimethoxy[1,2,4]triazolo[1,5-c]pyrimidin-2-yl)-6-(trifluoromethyl)benzenesulfonamide]",(7) % activity found,"[3]; 10 DAT, rate (6) 15",10%
same,(7) % activity found,"[3]; 21 DAT, rate (6) 15",0%
same,(7) % activity found,"[1]; 21 DAT, rate (6) 5",20%
same,(7) % activity found,"Zea mays (ZEAMX); 10 DAT, rate (6) 5",0%
same,(7) % activity found,"Zea mays (ZEAMX); 10 DAT, rate (6) 15",30%
same,(7) % activity found,[5]; rate (6) 5,10%
same,(7) % activity found,[5]; rate (6) 15,30%
"O=C(Nc1ccc(F)cc1F)c1cccnc1Oc1cccc(C(F)(F)F)c1 [B3-1, N-(2,4-difluorophenyl)-2-[3-(trifluoromethyl)phenoxy]-3-pyridinecarboxamide]",plant injury at 40 g/ha,"[3]; Triticum aestivum, post-emergence, 240 h, 10 DAT, B 40 g of ai/ha, read-out: % activity found",20%
same,% activity found,"[1]; 21 DAT, B 120 g of ai/ha",30%
same,pest or weed control at 40 g/ha,"[6]; 240 h, 10 DAT",40%
same,pest or weed control at 40 g/ha,"[6]; 504 h, 21 DAT",10%
same,pest or weed control at 120 g/ha,"[6]; 504 h, 21 DAT, B 120 g of ai/ha",20%
same,plant injury at 40 g/ha,"Zea mays (ZEAMX); Zea mays, post-emergence, 240 h, 10 DAT, read-out: % activity found",40%
same,plant injury at 120 g/ha,"Zea mays (ZEAMX); Zea mays, post-emergence, 240 h, 10 DAT, B 120 g of ai/ha, read-out: % activity found",40%
same,plant injury at 40 g/ha,"Zea mays (ZEAMX); Zea mays, post-emergence, 504 h, 21 DAT, read-out: % activity found",30%
same,pest or weed control at 40 g/ha,Setaria viridis (SETVI),60%
same,% activity found,[2]; B 40 g of ai/ha,0%
same,% activity found,[2]; B 120 g of ai/ha,0%
same,plant injury at 40 g/ha,"Oryza sativa (ORYSA); Oryza sativa, post-emergence, 504 h, 21 DAT, B 40 g of ai/ha, read-out: % activity found",30%
same,plant injury at 120 g/ha,"Oryza sativa (ORYSA); Oryza sativa, post-emergence, 504 h, 21 DAT, B 120 g of ai/ha, read-out: % activity found",50%
